According to patent publication EP0006061A1, “Medicinal compound consisting of a derivative of cyclopentyl aldehyde” (INSTITUT DE RECHERCHES CHIMIQUES ET BIOLOGIQUES APPLIQUEES …, priority 1978, dated 1979):
Values after ≈ are worked out from the molar mass of the structure shown.

What was measured:
cobayes = experiment: histamine aerosol bronchospasm (time to apnoea); type: in vivo; conditions: 0,1 mg/kg, aerosol for 10 min before histamine aerosol; controls 108 ± 18
Protocol: (§1) Les essais pharmaceutiques qui ont été mis en oeuvre avec les produits des exemples 1 et 4, ont été résumés ci-après : • 1°/ essais avec l'exemple 1 • a/ activité bactériostatique L' α-(2-formyl-3-méthyl-cyclopentyl)-acétal- déhyde inhibe les bactéries Gram (+) et Gram (-). Les CMI (concentration minimale inhibitrice) sont les suivantes : 0,75 mg/ml sur Staphylococcus aureus Londres, 1,2 mg/ml sur Escherichia coli, et 1,5 mg/ml sur Proteus • b/ activité antispasmodique : Les DE-50 du produit de l'exemple 1 ont été déterminés • (i) in vitro sur iléon isolé de cobaye vis à vis de l'histamine : DE - 50 = 50 γ/ml; • (ii) in vivo sur l'animal vivant selon la méthode de KONZETT & ROESLLER : DE - 50 = 2,6 mg/kg par administration i.v. • c/ activité antianaphylactique : Des cobayes mâles sont sensibilisés par deux injections de 0,5 ml d'une solution d'albumine à 2 g/1, à deux jours d'intervalle. Quatre semaines aprës,le choc anaphylactique mortel est provoqué par injection i.v. de 0,2 ml d'une solution aqueuse d'ovalbumine à 2 g/1. Les produits à tester sont administrés 30 mn avant (administration i.p.) ou en même temps (administration i.v.) que l'injection provoquant ledit choc anaphylactique. Les résultats sont donnés dans le tableau I pour le produit de l'exemple 1 et la Prométhazine en tant que produit de référence : [formula] • 2°/ essais avec le produit de l'exemple 4 (constitué par un mélange de 87 % en poids d'isomère "cis-trans" et 13 % en poids d'isomère "trans-cis). • a/ activité bactériostatigue : Le produit de l'exemple 4 inhibe les bactéries Gram (+) et Gram (-). […]

iléon isolé de cobaye = experiment: antispasmodic activity in vitro against histamine on isolated ileum; type: cell-based; conditions: isolated guinea pig ileum, read-out: DE - 50 (the source's name)
Protocol: as §1, with “anaphylactique.” for “anaphylactique. Les résultats sont donnés dans le tableau I pour le produit de l'exemple 1 et la Prométhazine en tant que produit de référence : [formula] • 2°/ essais avec le produit de l'exemple 4 (constitué par un mélange de 87 % en poids d'isomère "cis-trans" et 13 % en poids d'isomère "trans-cis). • a/ activité bactériostatigue : Le produit de l'exemple 4 inhibe les bactéries Gram (+) et Gram (-).”

Proteus = experiment: bacteriostatic activity (MIC); type: cell-based; conditions: read-out: CMI (concentration minimale inhibitrice)
Protocol: (§2) Les essais pharmaceutiques qui ont été mis en oeuvre avec les produits des exemples 1 et 4, ont été résumés ci-après : • 1°/ essais avec l'exemple 1 • a/ activité bactériostatique L' α-(2-formyl-3-méthyl-cyclopentyl)-acétal- déhyde inhibe les bactéries Gram (+) et Gram (-). Les CMI (concentration minimale inhibitrice) sont les suivantes : 0,75 mg/ml sur Staphylococcus aureus Londres, 1,2 mg/ml sur Escherichia coli, et 1,5 mg/ml sur Proteus • b/ activité antispasmodique : Les DE-50 du produit de l'exemple 1 ont été déterminés • (i) in vitro sur iléon isolé de cobaye vis à vis de l'histamine : DE - 50 = 50 γ/ml; • (ii) in vivo sur l'animal vivant selon la méthode de KONZETT & ROESLLER : DE - 50 = 2,6 mg/kg par administration i.v. • c/ activité antianaphylactique : Des cobayes mâles sont sensibilisés par deux injections de 0,5 ml d'une solution d'albumine à 2 g/1, à deux jours d'intervalle. Quatre semaines aprës,le choc anaphylactique mortel est provoqué par injection i.v. de 0,2 ml d'une solution aqueuse d'ovalbumine à 2 g/1. Les produits à tester sont administrés 30 mn avant (administration i.p.) ou en même temps (administration i.v.) que l'injection provoquant ledit choc anaphylactique. Les résultats sont donnés dans le tableau I pour le produit de l'exemple 1 et la Prométhazine en tant que produit de référence : [formula] • 2°/ essais avec le produit de l'exemple 4 (constitué par un mélange de 87 % en poids d'isomère "cis-trans" et 13 % en poids d'isomère "trans-cis). • a/ activité bactériostatigue : Le produit de l'exemple 4 inhibe les bactéries Gram (+) et Gram (-). Ses CMI sont les suivantes : • 1,5 mg/m sur Staphylococcus aureus, Londres • 1 mg/ml sur Escherichia coli (souche 548) • 1,75 mg/ml sur Proteus vulgaris (souche 1557) • 2,5 mg/ml sur Klebsiella pneumoniae (souche 433), • 1 mg/ml sur Salmonella typhi murium (souche IP), • 1,5 mg/ml sur Staphylococcus aureus (souche 634), • 1,25 mg/ml sur Streptococcus (souche 1178) • 1,25 mg/ml sur Bacillus substilis, (les souches 548, 1557, 433, 634, et 1178 étant celles du catalogue de la collection du "Centre International de Distribution de Souches et d'Information sur les Types Microbiens" de . Lausanne, et la souche "IP" provenant de l'Institut Pasteur de Paris. • b/ activité bactéricide Le produit de l'exemple 4 détruit les bactéries Gram (+) et Gram (-). Ses CMB (concentration minimalebactéricide) déterminées sur milieu solide (quand moins de 0,01% de germes survivent) sont : • 1,75 mg/ml sur Staphylococcus aureus Londres • 1,5 mg/ml sur Escherichia coli (souche 548) • 2 mg/ml sur Proteus vulgaris (souche 1557) • 3 mg/ml sur Klebsiella pneumoniae (souche 433), • 1,25 mg/ml sur Salmonella typhi murium (souche I.P.) • 1,75 mg/ml sur Staphylococcus aureus (souche 634) • 2 mg/ml sur Streptococcus (souche 1178) • 2,5 mg/ml sur Bacillus substilis. • c/ activité bronchospatique Des cobayes mâles ou femelles [20 animaux (pesant 300-500 g) par dose et par produit à tester] sont exposés à un aérosol de l'exemple 4 (50 g/l en solution eau-éthanol) ou de Prométhazine (produit de référence) pendant 10 mn.

Escherichia coli = experiment: bacteriostatic activity (MIC); type: cell-based; conditions: read-out: CMI (concentration minimale inhibitrice)
Protocol: as §2

[1] = test system: Staphylococcus aureus Londres; experiment: bacteriostatic activity (MIC); type: cell-based; conditions: read-out: CMI (concentration minimale inhibitrice)
Protocol: as §2

l'animal vivant = experiment: antispasmodic activity in vivo, method of KONZETT & ROESLLER; conditions: iv, i.v. administration, read-out: DE - 50 (the source's name)
Protocol: as §1, with “anaphylactique.” for “anaphylactique. Les résultats sont donnés dans le tableau I pour le produit de l'exemple 1 et la Prométhazine en tant que produit de référence : [formula] • 2°/ essais avec le produit de l'exemple 4 (constitué par un mélange de 87 % en poids d'isomère "cis-trans" et 13 % en poids d'isomère "trans-cis). • a/ activité bactériostatigue : Le produit de l'exemple 4 inhibe les bactéries Gram (+) et Gram (-).”

Row | Structure (SMILES) | Apparition de l'apnée (en secondes) (cobayes) | EC50 (iléon isolé de cobaye) | MIC (Proteus) | MIC (Escherichia coli) | MIC [1] | ED50 (l'animal vivant)
1 | CC(CN1c2ccccc2Sc2ccccc21)N(C)C (stereo not drawn) [Prométhazine, reference compound] | >600 secondes |  |  |  |  | 
2 | CC1CCC(CC=O)C1C=O (stereo not drawn) [Ex. 1, α-(2-formyl-3-méthyl-cyclopentyl)-acétaldéhyde] |  | 50 µg/mL (≈ 0.324 mM) | 1500 µg/mL (≈ 9.73 mM) | 1200 µg/mL (≈ 7.78 mM) | 750 µg/mL (≈ 4.86 mM) | 2.6 mg/kg
